How the values were obtained:
[1] = tested on: Triton WR-1339-induced hyperlipidemia mice; assay: Lipid-lowering activity in Triton WR-1339-induced hyperlipidemia mice; type: in vivo, C57BL/6J mice; conditions: 100 mg/kg intragastric for 8 days
Procedure: 6-week-old SPF female C57BL/6J mice were purchased from the Experimental Animal Center of Sun Yat-sen University. The mice were randomly divided into 4 groups each including 6 mice, i.e., a normal control group, model a group, a fenofibrate group (100 mg/kg), and a B1 group (100 mg/kg), and intragastric administration was performed for 8 days. 24 hours before the last administration, the normal control group was intramuscularly injected with saline, and the remaining groups were injected with Triton WR-1339 (1500 mg/kg). One hour after the last administration, the eyeballs were removed to collect blood, the mice were executed by cervical dislocation, and the livers were collected. The plasma was allowed to stand for 1 hour, and the supernatant was collected by centrifugation at 4° C. and 3000 rpm. 100 mg of liver was weighed, added with methanol in 3 times the volume of the weighed liver, and homogenized thoroughly. Chloroform was then added in 6 times the volume and vortex oscillated. After centrifuging at 3000 rpm for 10 minutes, the lower chloroform layer was collected, and evaporated naturally overnight in a fume hood. 150 μL of 1% Triton ethanol was added and heated at 65° C. to be fully dissolved. Finally, triglycerides (TG), total cholesterol (TC), low-density lipoprotein cholesterol (LDL-C), and high-density lipoprotein cholesterol (HDL-C) in serum and liver samples were detected.

HepG2 cells = assay: Triglyceride test in HepG2 cells induced by high glucose; type: cell-based, human; conditions: concentration of 10 μM, 24 hours
Procedure: (2) HepG2 cells were seeded in a 12-well plate, cultured with DMEM (low sugar) medium and starved for 12 hours. When the cells grow to a density of 70%, the medium was changed to DMEM (high sugar) medium and the compound was added to act for 24 hours.

[2] = tested on: SREBP-1c, ACC, FAS and SCD-1; assay: mRNA content of LXR downstream genes by qPCR in 3T3-L1 cells; type: cell-based, mouse; conditions: day 6 of differentiation
Procedure: (§1) HepG2 cells were seeded in a 6-well plate with a cell density of 8×10^5 cells/well and incubated for 24 hours. The compounds to be tested were added and acted for 24 hours, and then the cells were harvested. The 3T3-L1 cells were harvested on day 6 of differentiation. The cells were washed twice with PBS, total RNA was extracted with RNAiso plus reagent, 1 μg of total RNA was reverse transcribed into cDNA using ReverTra Ace qPCR RT Master Mix, and PCR amplification was performed using SYBR Green Realtime PCR Master Mix.

[3] = tested on: SREBP-1c, ACC, FAS and SCD-1; assay: mRNA content of LXR downstream genes by qPCR in HepG2 cells; type: cell-based, human; conditions: 24 hours
Procedure: as §1

3T3-L1 cells = assay: cells; conditions: Mus musculus, 3T3-L1, 144 h, read-out: IC50 for lowering the triglyceride level in 3T3-L1 cells
Procedure: (1) Cell culture: human liver cancer cells (HepG2 cells) and mouse pre-adipocytes (3T3L1 cells) were cultured in DMEM (high glucose) medium containing 10% fetal bovine serum and 1% penicillin-streptomycin under conditions of 37° C. and 5% CO2.
(3) The steps of differentiation preadipocytes 3T3-L1 were as follows:
Cells were seeded in a 48-well plate, cultured in complete medium until the cells were completely in contact (day 0), and the medium was changed to a differentiation medium I (complete medium supplemented with 2 μg/mL of insulin, 100 ng/mL of dexamethasone, 0.5 mM of 3-isobutyl-1-methylxanthine, and 10 ng/mL of biotin) to culture for 3 days. The blank control group was still continued being cultured with the complete medium. On day 3, the medium was changed to a differentiation medium II (complete medium supplemented with 2 μg/mL of insulin) and culturing was continued for 3 days. On day 6, the cells were harvested for subsequent analysis.
(4) Triglyceride test: the treated cells were harvested, washed twice with icy PBS (0.2 M NaCl, 10 mM Na2HPO4, 3 mM KCl, 2 mM KH2PO4, pH 7.4), breaking the cells with ultrasonic waves, and detecting absorbance at 510 nm using the triglyceride detection kit (Nanjing Jiancheng Bioengineering Institute).

liver X receptors = assay: Liver X receptor activity test, (subtype not named); type: cell-based, human; conditions: summary of Table 1
Procedure: (1) Cell culture: human embryonic kidney cells (HEK293T cells) were cultured in DMEM (high glucose) medium containing 10% fetal bovine serum and 1% penicillin-streptomycin under conditions of 37° C. and 5% CO2.
(2) Transfection: HEK293T cells were seeded in a 96-well plate with a cell density of 2×10^4 cells/well. After 24 hours, the cells were transfected according to instructions of Lipofectamine™ 3000 reagent. The specific steps of transfection were as follows: • (1) adding 15 μL of L3000 reagent to 500 μL of DMEM (high sugar) medium, and vortex oscillating for 2 seconds; • (2) mixing 6.5 μg of pGL3/(DR-4)-c-fos-FF-luc plasmid, 0.13 μg of pCMV/Renilla-luc plasmid, 1.3 μg of pSG5/hLXRα (or pSG5/hLXRβ plasmid), 1.3 μg of pSG5/hRXRα plasmid, and 19 μL of P3000 reagent in 500 μL of DMEM (high sugar) medium; • (3) adding the plasmid mixture to a liposome mixture and standing by at room temperature for 20 minutes; and • (4) adding 10 μL of liposome-DNA solution to each well of the 96-well plate, and gently shaking the 96-well plate to mix well.
(3) Drug intervention: after 5 hours of transfection, the compounds to be tested were added, and the plate was placed in an incubator to continue culturing for 20 hours.
(4) Detection: dual-luciferase reporter gene system was used for detection. The specific steps of detection were as follows: • (1) aspirating the original medium in the 96-well plate, adding cell lysate to the 96-well plate at 20 μL/well, and quickly shaking the plate at room temperature for 20 minutes; • (2) adding samples to a 384-well plate at 20 μL/well; • (3) adding firefly luciferase substrate to each well at 10 μL/well, and measuring chemiluminescence after 7 seconds; and • (4) adding Renilla luciferase substrate to the same sample well at 100 μL/well, and measuring chemiluminescence after 7 seconds.
Result processing: the results were analyzed using Renilla luciferase activity to correct the firefly luciferase activity.

CC(C)[C@H]1N(C(=O)OC(C)(C)C)CC[C@]12C(=O)N(c1cccc(-c3ccc(CO)c(S(C)(=O)=O)c3)c1)c1ccccc12 [Compound 2a-1]
triglyceride content in the livers of mice ([1]; liver): can reduce the triglyceride content | HDL-C/LDL-C level ([1]; serum): slightly increased | HDL-C/TC ([1]; serum): Neither fenofibrate nor compound 2a-1 had a significant effect | increase in HDL-C level induced by Triton WR-1339 ([1]; serum): significantly inhibit | increase in LDL-C level induced by Triton WR-1339 ([1]; serum): significantly inhibit | increase in TC level induced by Triton WR-1339 ([1]; serum): significantly inhibit | increase in TG level induced by Triton WR-1339 ([1]; serum): significantly inhibit | triglyceride accumulation in HepG2 cells induced by high glucose (HepG2 cells): significantly reduce | mRNA content of ACC [2]: reduced the mRNA content of SREBP-1c, ACC, FAS and SCD-1 in a concentration-dependent manner | mRNA content of FAS [2]: reduced the mRNA content of SREBP-1c, ACC, FAS and SCD-1 in a concentration-dependent manner | mRNA content of SCD-1 [2]: reduced the mRNA content of SREBP-1c, ACC, FAS and SCD-1 in a concentration-dependent manner | mRNA content of SREBP-1c [2]: reduced the mRNA content of SREBP-1c, ACC, FAS and SCD-1 in a concentration-dependent manner | mRNA content of ACC [3]: significantly reduced | mRNA content of FAS [3]: significantly reduced | mRNA content of SCD-1 [3]: significantly reduced | mRNA content of SREBP-1c [3]: significantly reduced | IC50 (3T3-L1 cells): 270 ± 30 nM | inverse activation of liver X receptors (in words) (liver X receptors): can inversely activate liver X receptors
